Data: the NIST ThermoML archive (doi:10.1021/acs.jced.9b00377)

Legend:
[1] = for viscosity: Falling or rolling sphere viscometry; for speed of sound: Single path-length method
[2] = refractive index (Na D-line) (dimensionless); conditions: 100 kPa, Liquid, Standard Abbe refractometry

CCCC(=O)[O-].CN(C)C(=[NH2+])N(C)C [1,1,3,3-tetramethylguanidinium butanoate]
[1], 100 kPa, Liquid
Conditions | speed of sound [m/s] | viscosity [mPa·s]
293.15 K | 1593.6 | 2480
298.15 K | 1576.5 | 1638
303.15 K | 1559.4 | 1049
308.15 K | 1542.3 | 694.1
313.15 K | 1525.1 | 453.1
318.15 K | 1508 | 318.2
323.15 K | 1490.9 | 223.5
328.15 K | 1475.5 | 158.5
333.15 K | 1458.4 | 114
338.15 K | 1441.3 | 88.1
343.15 K | 1424.1 | 65.7

[1], 100 kPa, Liquid, Vibrating tube method
Conditions | mass density [kg/m3]
293.15 K | 1032.2
298.15 K | 1028.74
303.15 K | 1025.27
308.15 K | 1021.74
313.15 K | 1018.24
318.15 K | 1014.77
323.15 K | 1011.3
328.15 K | 1007.79
333.15 K | 1004.24
338.15 K | 1000.67
343.15 K | 997.07

[2]
Conditions | refractive index
293.15 K | 1.4823
298.15 K | 1.4809
303.15 K | 1.4794
308.15 K | 1.4781
313.15 K | 1.4766
318.15 K | 1.4753
323.15 K | 1.474
328.15 K | 1.4727
333.15 K | 1.4716
338.15 K | 1.4704
343.15 K | 1.4693

CCCCCCC(=O)[O-].CN(C)C(=[NH2+])N(C)C [1,1,3,3-tetramethylguanidinium heptanoate]
[1], 100 kPa, Liquid
Conditions | speed of sound [m/s] | viscosity [mPa·s]
293.15 K | 1535.5 | 1827
298.15 K | 1517.9 | 1144
303.15 K | 1500.2 | 740.8
308.15 K | 1482.5 | 493.9
313.15 K | 1464.8 | 336.9
318.15 K | 1447.2 | 242.3
323.15 K | 1429.5 | 172.9
328.15 K | 1413.6 | 126.7
333.15 K | 1395.9 | 94.4
338.15 K | 1378.2 | 71.6
343.15 K | 1360.6 | 55.8

[1], 100 kPa, Liquid, Vibrating tube method
Conditions | mass density [kg/m3]
293.15 K | 986.16
298.15 K | 982.69
303.15 K | 979.2
308.15 K | 975.61
313.15 K | 972.09
318.15 K | 968.56
323.15 K | 965
328.15 K | 961.39
333.15 K | 957.74
338.15 K | 954.06
343.15 K | 950.35

[2]
Conditions | refractive index
293.15 K | 1.4792
298.15 K | 1.4776
303.15 K | 1.4759
308.15 K | 1.474
313.15 K | 1.4722
318.15 K | 1.4707
323.15 K | 1.4689
328.15 K | 1.4674
333.15 K | 1.4656
338.15 K | 1.464
343.15 K | 1.4628

CCCCCC(=O)[O-].CN(C)C(=[NH2+])N(C)C [1,1,3,3-tetramethylguanidinium hexanoate]
[1], 100 kPa, Liquid
Conditions | speed of sound [m/s] | viscosity [mPa·s]
293.15 K | 1539 | 1534
298.15 K | 1522.2 | 1001
303.15 K | 1505.5 | 657.8
308.15 K | 1488.8 | 442.1
313.15 K | 1472.1 | 309.8
318.15 K | 1455.4 | 221.1
323.15 K | 1438.7 | 159.5
328.15 K | 1423.6 | 118.5
333.15 K | 1406.9 | 89.4
338.15 K | 1390.2 | 69.3
343.15 K | 1373.5 | 54

[1], 100 kPa, Liquid, Vibrating tube method
Conditions | mass density [kg/m3]
293.15 K | 997.51
298.15 K | 994.1
303.15 K | 990.61
308.15 K | 987.16
313.15 K | 983.73
318.15 K | 980.29
323.15 K | 976.82
328.15 K | 973.32
333.15 K | 969.78
338.15 K | 966.22
343.15 K | 962.63

[2]
Conditions | refractive index
293.15 K | 1.4701
298.15 K | 1.4684
303.15 K | 1.466
308.15 K | 1.4638
313.15 K | 1.4619
318.15 K | 1.4601
323.15 K | 1.458
328.15 K | 1.4563
333.15 K | 1.4544
338.15 K | 1.4528
343.15 K | 1.4511

CN(C)C(=[NH2+])N(C)C.O=C([O-])O [1,1,3,3-tetramethylguanidinium hydrogen carbonate]
Conditions | mass density [kg/m3]
[1], 173 K, 101.33 kPa, Crystal, X-ray diffraction | 1213

CCCCCCCC(=O)[O-].CN(C)C(=[NH2+])N(C)C [1,1,3,3-tetramethylguanidinium octanoate]
[1], 100 kPa, Liquid
Conditions | speed of sound [m/s] | viscosity [mPa·s]
293.15 K | 1497.3 | 1093
298.15 K | 1481.3 | 737.2
303.15 K | 1465.4 | 506.8
308.15 K | 1449.4 | 347.6
313.15 K | 1433.5 | 249.6
318.15 K | 1417.5 | 186.8
323.15 K | 1401.6 | 138.8
328.15 K | 1387.2 | 105.7
333.15 K | 1371.3 | 81.2
338.15 K | 1355.3 | 65
343.15 K | 1339.4 | 52.5

[1], 100 kPa, Liquid, Vibrating tube method
Conditions | mass density [kg/m3]
293.15 K | 969.06
298.15 K | 965.65
303.15 K | 962.28
308.15 K | 958.95
313.15 K | 955.63
318.15 K | 952.3
323.15 K | 948.95
328.15 K | 945.59
333.15 K | 942.23
338.15 K | 938.85
343.15 K | 935.46

[2]
Conditions | refractive index
293.15 K | 1.4678
298.15 K | 1.4657
303.15 K | 1.4631
308.15 K | 1.4612
313.15 K | 1.4589
318.15 K | 1.4565
323.15 K | 1.4544
328.15 K | 1.4523
333.15 K | 1.4501
338.15 K | 1.4482
343.15 K | 1.4463

CCCCC(=O)[O-].CN(C)C(=[NH2+])N(C)C [1,1,3,3-tetramethylguanidinium pentanoate]
[1], 100 kPa, Liquid
Conditions | speed of sound [m/s] | viscosity [mPa·s]
293.15 K | 1540.6 | 1241
298.15 K | 1524.7 | 797.9
303.15 K | 1508.7 | 561.1
308.15 K | 1492.8 | 382.2
313.15 K | 1476.8 | 268.2
318.15 K | 1460.8 | 199.7
323.15 K | 1444.9 | 147.7
328.15 K | 1430.5 | 111.4
333.15 K | 1414.6 | 85.2
338.15 K | 1398.6 | 67.7
343.15 K | 1382.7 | 54

[1], 100 kPa, Liquid, Vibrating tube method
Conditions | mass density [kg/m3]
293.15 K | 1010.3
298.15 K | 1006.9
303.15 K | 1003.4
308.15 K | 1000
313.15 K | 996.64
318.15 K | 993.25
323.15 K | 989.84
328.15 K | 986.42
333.15 K | 982.98
338.15 K | 979.53
343.15 K | 976.07

[2]
Conditions | refractive index
293.15 K | 1.4776
298.15 K | 1.4758
303.15 K | 1.4736
308.15 K | 1.4718
313.15 K | 1.4699
318.15 K | 1.4681
323.15 K | 1.4664
328.15 K | 1.4648
333.15 K | 1.4633
338.15 K | 1.4615
343.15 K | 1.46
